Laboratory results reported in publication PMC11653702, “Targeting the SPC25/RIOK1/MYH9 Axis to Overcome Tumor Stemness and Platinum Resistance in Epithelial Ovarian Cancer” (Advanced Science, 2024).
Values joined by “and” are separate entries in the source; they are usually repeats but may differ in a detail not shown here. Equal entries are not always repeated.

How the values were obtained:
[1] = system: SKOV3 cells; assay: Annexin V/PI apoptosis, SKOV3; format: cell-based, human; details: replicates #1-#3
Protocol: (§1) Fluorescence-Activated Cell Sorting Assay: For apoptosis analysis, we used an Annexin V-FITC/PI Apoptosis Detection Kit (#A211-01; Vazyme Biotech), according to the manufacturer’s instructions. We considered the total proportion of Annexin V-positive cells (quadrants II and III) to be the apoptotic rate, regardless of the PI status. All samples were analyzed on a flow cytometer (cytoFLEX LX; Beckman Coulter, Indianapolis, IN, USA), and percentages of apoptotic cells were analyzed using CytExpert (Beckman Coulter).

[2] = system: OVCAR8 cells; assay: Cell Counting Kit-8 viability, OVCAR8; format: cell-based, human; details: SPC25-silenced OVCAR8
Protocol: (§2) Cell Viability Assay: The indicated cells were seeded into 96-well plates at a density of 4 × 10^3 cells per well. Next, the Cell Counting Kit-8 reagent (Dojindo) was added to the wells, followed by incubation at 37°C for 2 h in the dark, after which the optical density at 450 nm was determined on a microplate reader (EPOCH2; BioTek, USA). Each cell line was represented using triplicate wells, and the experiment was repeated three times.

[3] = system: COV644 cells; assay: Annexin V/PI apoptosis, COV644; format: cell-based, human; details: for PI+/AnnexinV+: replicates #1-#3
Protocol: as §1

[4] = system: OVCAR3 cells; assay: Cell Counting Kit-8 viability, OVCAR3; format: cell-based, human; details: SPC25-overexpressing OVCAR3
Protocol: as §2

[5] = system: caspase-3 and PARP; assay: Western blotting of apoptosis-related proteins in xenografted tumor tissues; format: in vivo, human EOC cells in BALB/c-Nude mice; details: SPC25-overexpressing OVCAR3 tumors, CDDP
Protocol: (§3) In the intraperitoneal tumor model, 1 × 10^6 of the indicated cells stably expressing luciferase were injected intraperitoneally into the mice. Treatment with saline (Vehicle), CDDP (5 mg/kg, 3 times per week for 1 week), CBP1 (10 mg/kg, once in 2 days), or a combination of CDDP (5 mg/kg, 3 times per week for 1 week) and CBP1 (10 mg/kg, once in 2 days) was initiated when the bioluminescence signal reached 2 × 10^7 p/s/cm^2/sr for 6 weeks of continuous treatment cycles. The mice were sacrificed when they became moribund, as determined by an observer blinded to the treatment. Finally, their tumors were excised for qRT‐PCR and Western blotting.
Western Blotting: Western blotting was performed using primary antibodies detailed in Table S5 (Supporting Information). Western blotting grayscale analyses were performed using ImageJ (version 2.0.0; NIH, Bethesda, MD, USA). β-Catenin expression was quantified by determining the gray level of each band using Image J and normalized using α-tubulin.

[6] = system: SPC25; assay: Expression of SPC25 across different generation CDX tumor of Blab/c Nude mice in CDDP group (Ct); format: in vivo; details: for Gapdh (Ct): Gapdh_rep1-3, single replicates; for Expression of SPC25 (Ct): SPC25_rep1-3, single replicates
Excerpt: Supplement ADVS-11-2406688-s001.zip/SourceData.xlsx, sheet "Fig1E-1G,S1F" | column: Expression of SPC25 in CDDP-resistant and Parental CDX tumor of Blab/c Nude mice (Ct)

[7] = system: OVCAR3 cells; assay: Annexin V/PI apoptosis, OVCAR3; format: cell-based, human; details: for PI+/AnnexinV+: replicates #1-#3
Protocol: as §1

[8] = system: COV644 cells; assay: Cell Counting Kit-8 viability, COV644; format: cell-based, human; details: SPC25-overexpressing COV644
Protocol: as §2

[9] = system: OVCAR8 cells; assay: Intraperitoneal tumor model, bioluminescence, OVCAR8; format: in vivo, human EOC cells in BALB/c-Nude mice; details: SPC25-silenced OVCAR8, CDDP
Excerpt: (§4) Subsequently, we selected 4 representative EOC cell lines (Figure S1F,G, Supporting Information) and validated the role of SPC25 in mediating platinum resistance in EOC through a series of in vitro and in vivo experiments. […] To further establish an EOC mouse model, we intraperitoneally injected BALB/c‐Nude mice with EOC cells with stable luciferase expression. CDDP treatment (three times per week, a week as a cycle) was initiated when the bioluminescence signal reached 2 × 10^7 p/s/cm^2/sr.
as §3

[10] = system: OVCAR8 cells; assay: Annexin V/PI apoptosis, OVCAR8; format: cell-based, human; details: replicates #1-#3
Protocol: as §1

[11] = system: SKOV3 cells; assay: Cell Counting Kit-8 viability, SKOV3; format: cell-based, human; details: SPC25-silenced SKOV3
Protocol: as §2

[12] = system: OVCAR3 xenografted tumor tissues; assay: TUNEL assay in intraperitoneal xenografted tumor tissues, OVCAR3; format: in vivo, human EOC cells in BALB/c-Nude mice; details: for TUNEL+ cell (%): CDDP-treated mice, #1-#6
Protocol: as §3
TUNEL Assay: The TUNEL staining procedure was conducted on the DeadEnd Fluorometric TUNEL System (#G3250; Promega), according to the manufacturer’s instructions. In brief, paraffin-embedded sections were baked at 65°C for 60 min, followed by three washes in a xylene bath. The sections were then washed in a series of absolute ethanol, 95% ethanol, and 70% ethanol, and finally, in PBS. Then, each section was treated with proteinase K at 37°C for 30 min and washed three times with PBS. Thereafter, the sections were incubated with […] (containing Biotin-11-dUTP and TdT Enzyme) at 37 ℃ for 1 h in the dark, followed by three PBS washes. The samples were subsequently incubated with streptavidin–fluorescein at 37 ℃ for 30 min in the dark, followed by three washes with PBS. DAPI was used to stain the nucleus. Finally, the experimental outcomes were observed under a fluorescence microscope, and the percentages of TUNEL-positive cells were quantified from 10 randomly selected fields.

[13] = system: OVCAR3 cells; assay: Intraperitoneal tumor model, bioluminescence, OVCAR3; format: in vivo, human EOC cells in BALB/c-Nude mice; details: SPC25-overexpressing OVCAR3, 6 weeks CDDP
Excerpt: as §4, §3

[14] = system: OVCAR3 cells; assay: Survival of intraperitoneal tumor-bearing nude mice, OVCAR3; format: in vivo, human EOC cells in BALB/c-Nude mice
Excerpt: as §4, §3

[15] = SPC25-overexpressing OVCAR3, CDDP

## [NH2][Pt]([NH2])([Cl])[Cl] [CDDP, cisplatin]
[1]; SKOV3 Scramble, CDDP 10μM
  PI+/AnnexinV+: 8.18 and 6.89 and 9.75
[1]; SKOV3 sh-SPC25#1, CDDP 10μM
  PI+/AnnexinV+: 30.36 and 26.95 and 22.58
[1]; SKOV3 sh-SPC25#2, CDDP 10μM
  PI+/AnnexinV+: 29.63 and 24.64 and 23.77
[2]
  CDDP sensitivity: enhanced CDDP sensitivity
[3]; COV644 SPC25, CDDP 10μM
  PI+/AnnexinV+: 9.53 and 5.89 and 7.71
[3]; COV644 Vector, CDDP 10μM
  PI+/AnnexinV+: 23.38 and 26.97 and 27.94
[3]; SPC25-overexpressing COV644
  CDDP-induced apoptosis: considerably reduced
[4]
  cell growth in presence of CDDP: significantly promoted growth
[5]
  activation of caspase-3 and PARP: lowered activation
[6]; 1st generation
  Gapdh (Ct): 17.013 Ct and 17.354 Ct and 17.197 Ct
  Expression of SPC25 (Ct): 27.496 Ct and 27.737 Ct and 27.628 Ct
[6]; 2nd generation
  Gapdh (Ct): 16.968 Ct and 16.875 Ct and 17.154 Ct
  Expression of SPC25 (Ct): 26.835 Ct and 27.032 Ct and 26.963 Ct
[6]; 3rd generation
  Gapdh (Ct): 16.826 Ct and 17.002 Ct and 16.952 Ct
  Expression of SPC25 (Ct): 26.448 Ct and 26.397 Ct and 26.314 Ct
[6]; 4th generation
  Gapdh (Ct): 16.654 Ct and 16.763 Ct and 16.924 Ct
  Expression of SPC25 (Ct): 25.574 Ct and 25.623 Ct and 25.706 Ct
[7]; OVCAR3 SPC25, CDDP 10μM
  PI+/AnnexinV+: 9.75 and 8.73 and 6.45
[7]; OVCAR3 Vector, CDDP 10μM
  PI+/AnnexinV+: 21.37 and 25.13 and 28.24
[7]; SPC25-overexpressing OVCAR3
  CDDP-induced apoptosis: considerably reduced
[8]
  cell growth in presence of CDDP: significantly promoted growth
[9]
  CDDP sensitivity, apoptotic index and survival: increase in CDDP sensitivity and apoptotic index, as well as prolonged survival
[10]; OVCAR8 Scramble, CDDP 10μM
  PI+/AnnexinV+: 7.42 and 8.61 and 9.34
[10]; OVCAR8 sh-SPC25#1, CDDP 10μM
  PI+/AnnexinV+: 24.86 and 27.38 and 21.74
[10]; OVCAR8 sh-SPC25#2, CDDP 10μM
  PI+/AnnexinV+: 24.57 and 21.02 and 29.26
[11]
  CDDP sensitivity: enhanced CDDP sensitivity
[12]; OVCAR3 SPC25-overexpressing
  TUNEL+ cell (%): 8.84% and 3.44% and 6.27% and 4.43% and 7.25% and 8.02%
[12]; OVCAR3 Vector
  TUNEL+ cell (%): 31.16% and 27.27% and 21.88% and 26.01% and 32.74% and 29.56%
[12]; [15]
  TUNEL-positive cells: reduced number
[13]
  CDDP resistance of tumors: notable increase in CDDP resistance
[14]; OVCAR3 SPC25-overexpressing, status 1, individual mice
  Survival, days after CDDP treatment: 50 days and 52 days and 51 days and 55 days and 62 days
[14]; OVCAR3 Vector, status 0, individual mice
  Survival, days after CDDP treatment: 70 days and 64 days and 82 days and 85 days
[14]; OVCAR3 Vector, status 1, individual mice
  Survival, days after CDDP treatment: 58 days and 62 days
[14]; [15]
  survival of tumor-bearing mice: decreased survival
